Target: T1, Adenosine deaminase (Bos taurus, UniProt P56658)
T1 sequence (P56658 whole entry): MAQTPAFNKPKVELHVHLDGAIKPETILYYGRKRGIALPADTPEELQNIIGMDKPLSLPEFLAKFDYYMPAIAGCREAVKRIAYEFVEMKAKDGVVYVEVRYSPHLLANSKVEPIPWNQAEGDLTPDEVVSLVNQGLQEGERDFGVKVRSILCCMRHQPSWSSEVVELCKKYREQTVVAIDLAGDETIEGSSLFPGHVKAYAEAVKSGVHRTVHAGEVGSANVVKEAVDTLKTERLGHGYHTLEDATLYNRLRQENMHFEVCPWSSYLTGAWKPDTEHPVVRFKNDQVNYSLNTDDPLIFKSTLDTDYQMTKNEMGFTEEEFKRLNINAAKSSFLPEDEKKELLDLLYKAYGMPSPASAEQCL
Description: Inhibition of Adenosine deaminase (ADA) of calf intestine

Row | SMILES | Ki [nM]
1 | C[C@H](O)[C@@H](COCCc1ccccc1)n1cnc2c(N)ncnc21 | 93.1
2 | CCCCOC[C@H]([C@H](C)O)n1cnc2c(N)ncnc21 | 123
